Measured values taken from patent US9695155B2, “Herbicidal substituted pyrimidinyloxy benzene compounds” (E. I. DU PONT DE NEMOURS AND COMPANY, priority 2013, dated 2017).

Key:
[1] = tested on: morningglory; experiment: Test A preemergence; assay type: in vivo, Ipomoea spp.
Method in brief: (§1)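 Greenhouse pot test, loam/sand soil. Formulation: non-phytotoxic solvent mix plus surfactant. Pre: directed spray onto soil after sowing. Post: plants at 1–2 leaf, 2–10 cm. Rated visually vs untreated controls at ~10 d, 0 (no effect) to 100 (complete control).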

[2] = tested on: wheat; experiment: Test A preemergence; assay type: in vivo, Triticum aestivum
Method in brief: as §1

[3] = tested on: velvetleaf; experiment: Test A postemergence; assay type: in vivo, Abutilon theophrasti
Method in brief: as §1

[4] = tested on: sedge, umbrella; experiment: Test B flooded paddy test; assay type: in vivo, Cyperus difformis; settings: Flood, 250 g ai/ha; 0 to 100 scale where 0 is no effect and 100 is complete control
Method in brief: (§2)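 Seedlings are raised to two leaves, flooded to a depth of 3 cm and dosed by adding the compound to the floodwater. Water level is kept constant, and plants are scored visually versus controls 13–15 days later (0 = no effect, 100 = complete control).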

[5] = tested on: barnyardgrass; experiment: Test B flooded paddy test; assay type: in vivo, Echinochloa crus-galli; settings: Flood, 250 g ai/ha; 0 to 100 scale where 0 is no effect and 100 is complete control
Method in brief: as §2

[6] = tested on: corn; experiment: Test C preemergence; assay type: in vivo, Zea mays; settings: for Corn plant response rating: preemergence; for Plant response rating, Corn: Preemergence, scale 0 to 100, 0 no effect, 100 complete control
Source text: (§3) Seeds of plant species selected from blackgrass (Alopecurus myosuroides), Italian ryegrass (Lolium multiflorum), wheat, winter (winter wheat, Triticum aestivum), galium (catchweed bedstraw, Galium aparine), corn (Zea mays), large (Lg) crabgrass (Digitaria sanguinalis), giant foxtail (Setaria faberii), johnsongrass (Sorghum halepense), lambsquarters (Chenopodium album), morningglory (Ipomoea coccinea), yellow nutsedge (Cyperus esculentus), pigweed (Amaranthus retroflexus), ragweed (common ragweed, Ambrosia elatior), soybean (Glycine max), barnyardgrass (Echinochloa crus-galli), oilseed rape (Brassica napus), waterhemp (common waterhemp, Amaranthus rudis), kochia (Kochia scoparia), wild oat (Avena fatua), surinam grass (Brachiaria decumbens), foxtail, green (green foxtail, Setaria viridis), goosegrass (Eleusine indica), bromegrass, downy (downy bromegrass, Bromus tectorum), nightshade (eastern black nightshade, Solanum ptycanthum), cocklebur (common cocklebur, Xanthium strumarium), cupgrass, woolly (woolly cupgrass, Eriochloa villosa), bermudagrass (Cynodon dactylon), sunflower, (common oilseed sunflower, Helianthus annuus), Russian thistle (Salsola kali), and velvetleaf (Abutilon theophrasti) were planted into a blend of loam soil and sand and treated preemergence with test chemicals formulated in a non-phytotoxic solvent mixture which included a surfactant.
(§4) At the same time, plants selected from these crop and weed species and also barley, winter (winter barley, Hordeum vulgare), windgrass (Apera spica-venti), chickweed (common chickweed, Stellaria media), deadnettle (henbit deadnettle, Lamium amplexicaule), and canarygrass (littleseed canarygrass, Phalaris minor) were planted in pots containing Redi-Earth® planting medium (Scotts Company, 14111 Scottslawn Road, Marysville, Ohio 43041) comprising spaghnum peat moss, vermiculite, wetting agent and starter nutrients and treated with postemergence applications of test chemicals formulated in the same manner. Plants ranged in height from 2 to 18 cm (1- to 4-leaf stage) for postemergence treatments. Treated plants and controls were maintained in a greenhouse for 13 to 15 days, after which time all species were compared to controls and visually evaluated. Plant response ratings, summarized in Table C, are based on a scale of 0 to 100 where 0 is no effect and 100 is complete control. A dash (-) response means no test result.

[7] = tested on: giant foxtail; experiment: Test C preemergence; assay type: in vivo, Setaria faberii; settings: for Foxtail, Giant plant response rating: preemergence; for Plant response rating, Foxtail, Giant: Preemergence, scale 0 to 100, 0 no effect, 100 complete control
Method in brief: (§5)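 Seeds are planted in blended loam soil and sand and treated preemergence, while seedlings in a peat moss/vermiculite medium receive postemergence sprays at 2 to 18 cm height. All plants stay in the greenhouse for 13 to 15 days before visual comparison with controls on a 0–100 scale.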

[8] = tested on: large (Lg) crabgrass; experiment: Test C postemergence; assay type: in vivo, Digitaria sanguinalis; settings: for Plant response rating (0 to 100), Crabgrass, Large: postemergence; for Plant response rating, Crabgrass, Large: Postemergence, scale 0 to 100 (0 no effect, 100 complete control)
Source text: as §3, §4

[9] = tested on: soybean; experiment: Test C postemergence; assay type: in vivo, Glycine max; settings: for Plant response rating (0 to 100), Soybean: postemergence; for Plant response rating, Soybean: Postemergence, scale 0 to 100 (0 no effect, 100 complete control)
Method in brief: as §5

[10] = tested on: velvetleaf; experiment: Test C postemergence; assay type: in vivo, Abutilon theophrasti; settings: for Plant response rating (0 to 100), Velvetleaf: postemergence
Method in brief: as §5

[11] = tested on: barnyardgrass; experiment: Test C preemergence; assay type: in vivo, Echinochloa crus-galli; settings: for Barnyardgrass plant response rating: preemergence; for Plant response rating, Barnyardgrass: Preemergence, scale 0 to 100, 0 no effect, 100 complete control
Source text: as §3, §4

[12] = tested on: oilseed rape; experiment: Test C preemergence; assay type: in vivo, Brassica napus; settings: for Oilseed Rape plant response rating: preemergence; for Plant response rating, Oilseed Rape: Preemergence, scale 0 to 100, 0 no effect, 100 complete control
Source text: as §3, §4

[13] = 125 g ai/ha, 0 to 100 scale where 0 is no effect and 100 is complete control
[14] = 500 g ai/ha, 0 to 100 scale, 0 no effect, 100 complete control, approx. 10 days
[15] = 62 g ai/ha, scale 0 (no effect) to 100 (complete control)
[16] = 125 g ai/ha, scale 0 (no effect) to 100 (complete control)
[17] = 250 g ai/ha, scale 0 (no effect) to 100 (complete control)
[18] = 16 g ai/ha, scale 0 to 100 (0 no effect, 100 complete control)

| Structure (SMILES) | Plant response rating, Sedge, Umbrella [4] | Plant response rating, Barnyardgrass [5] | Corn plant response rating [6, 15] | Corn plant response rating [6, 16] | Plant response rating, Corn ([6]; 31 g ai/ha) | Foxtail, Giant plant response rating [7, 15] | Foxtail, Giant plant response rating [7, 16] | Plant response rating, Foxtail, Giant ([7]; 31 g ai/ha) | Corn plant response rating [6, 18] | Foxtail, Giant plant response rating [7, 18] | Barnyardgrass plant response rating [11, 18] | Barnyardgrass plant response rating [11, 15] | Barnyardgrass plant response rating [11, 16] | Plant response rating, Barnyardgrass ([11]; 31 g ai/ha) | Oilseed Rape plant response rating [12, 18] | Oilseed Rape plant response rating [12, 15] | Oilseed Rape plant response rating [12, 16] | also measured |
| --- | --- | --- | --- | --- | --- | --- | --- | --- | --- | --- | --- | --- | --- | --- | --- | --- | --- | --- |
| FC(F)(F)c1cnn(-c2ccccc2Oc2ncc(Cl)cn2)c1 [Compound 16] | 90 | 40 | 15 | 25 | 0 | 98 | 100 | 95 | – | – | – | – | – | – | – | – | – | Morningglory plant response rating [1, 13]: 30; Morningglory plant response rating [1, 14]: 90; Wheat plant response rating [2, 13]: 20; Wheat plant response rating [2, 14]: 60; Plant response rating, Velvetleaf [3, 13]: 100; Plant response rating, Velvetleaf ([3]; 500 g ai/ha, 0 to 100 scale, 0 no effect, 100 complete control): 100; Corn plant response rating [6, 17]: 35; Foxtail, Giant plant response rating [7, 17]: 100; Plant response rating (0 to 100), Crabgrass, Large ([8]; 125 g ai/ha): 30; Plant response rating (0 to 100), Crabgrass, Large ([8]; 250 g ai/ha): 85; Plant response rating, Crabgrass, Large ([8]; 31 g ai/ha, 13 to 15 days): 10; Plant response rating, Crabgrass, Large ([8]; 62 g ai/ha): 20; Plant response rating (0 to 100), Soybean ([9]; 125 g ai/ha): 90; Plant response rating (0 to 100), Soybean ([9]; 250 g ai/ha): 90; Plant response rating, Soybean ([9]; 31 g ai/ha, 13 to 15 days): 75; Plant response rating, Soybean ([9]; 62 g ai/ha): 85; Plant response rating (0 to 100), Velvetleaf ([10]; 125 g ai/ha): 75; Plant response rating (0 to 100), Velvetleaf ([10]; 250 g ai/ha): 75; Plant response rating, Velvetleaf ([10]; Postemergence, 31 g ai/ha, scale 0 to 100 (0 no effect, 100 complete control), 13 to 15 days): 60 |
| FCc1cccc(Oc2ncc(F)cn2)c1-n1cc(C(F)(F)F)cn1 [Compound 118] | 95 | 50 | 70 | 85 | 40 | 95 | 100 | 75 | 10 | 25 | 20 | 100 | 100 | 80 | 98 | 100 | 100 | Plant response rating, Oilseed Rape ([12]; 31 g ai/ha): 100 |
| COc1cnn(-c2c(C#N)cccc2Oc2ncc(Cl)cn2)c1 [Compound 137] | 0 | 0 | 5 | 10 | 5 | 60 | 90 | 5 | 0 | 35 | 0 | 10 | 40 | 5 | 50 | 85 | 95 | – |
| N#Cc1cnn(-c2c(CF)cccc2Oc2ncc(F)cn2)c1 [Compound 151] | 0 | 0 | 15 | 70 | 5 | 80 | 100 | 35 | 0 | 5 | 5 | 70 | 100 | 5 | 95 | 100 | 100 | – |
| FCc1cccc(Oc2ncc(Cl)cn2)c1-n1cc(Cl)cn1 [Compound 250] | 35 | 0 | – | 10 | – | – | 100 | – | 0 | 5 | 5 | – | 100 | – | 100 | – | 100 | Plant response rating, Corn ([6]; 62 g ai/ha): 0; Plant response rating, Foxtail, Giant ([7]; 62 g ai/ha): 100; Plant response rating, Barnyardgrass ([11]; 62 g ai/ha): 50; Plant response rating, Oilseed Rape ([12]; 62 g ai/ha): 100 |
